Laboratory results from patent publication US9238034B2, “FN14 antagonists and therapeutic uses thereof” (THE TRANSLATIONAL GENOMICS RESEARCH INSTITUTE, priority 2013, dated 2016).
Read-outs that look alike come from different tables or passages of the source.

Target: T1, Fn14-TWEAK binding (Homo sapiens, UniProt Q9NP84)
T1 construct: the human Fc fragment-tagged Fn14 extracellular domain (R&D Systems) was captured; purchased R&D Systems (Fn14-Fc); Peprotech (recombinant TWEAK)
T1 sequence (Q9NP84 28-80 limits assumed): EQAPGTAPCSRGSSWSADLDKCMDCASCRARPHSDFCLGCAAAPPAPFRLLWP
Test: Double sandwich ELISA small molecule screening of TWEAK binding to captured Fn14-Fc
Description: Double Sandwich ELISA. sTWEAK and sTWEAK variant proteins were synthesized as described above. The expression level of each IVTT synthesized sTWEAK protein was analyzed by western blot analysis and used in approximately equal amounts in the ELISA. To assay the binding of wild type sTWEAK and sTWEAK variants to Fn14, the human Fc fragment-tagged Fn14 extracellular domain (R&D Systems) was captured in an Immuno 96-microwell white plate by adding 100 μL of 0.025 μg/mL Fn14-Fc to wells coated with goat anti-human Fcγ fragment specific monoclonal antibody. After capture, the wells were washed 3× with Dulbecco's Phosphate Buffered Saline (DPBS) containing 0.05% Tween-20. Unbound sites were blocked by addition of 100 μL of blocking solution containing 0.05% Tween-20, 1% BSA, and 3% normal goat serum (NGS) in DPBS for 1 hr at room temperature. 0.01 μL of sTWEAK or sTWEAK variant made with the human IVTT kit or 2 μL of sTWEAK or sTWEAK variant made with the rabbit IVTT kit was diluted in 100 μL of sample diluent (DPBS+1% BSA+0.005% Tween-20) and then added to the wells for 2 hr followed by addition of 100 μL of 50 ng/mL biotinylated TWEAK detection antibody (R&D Systems) in sample diluent. Following incubation for additional 2 hr at room temperature, wells were washed 3× with DPBS containing 0.05% Tween-20 and bound biotinylated TWEAK antibody was detected by incubation with an HRP-conjugated streptavidin. The total luminescent signal was obtained using Femto ELISA kit (Pierce Biochemical) and compared to the standard curve signal obtained from the binding of 0-4000 pg/mL recombinant TWEAK (Peprotech inc) to Fn14-Fc. Using 5-parameter logistic curve fitting for standard curve analysis (Sigmaplot 11.0, SyStat Software Inc.), binding of sTWEAK or TWEAK variant to Fn14-Fc was determined. The data represents that observed for at least four replicate assays.
The small molecule screening was performed using the ELISA assay described above with minor modifications. Briefly, after capturing Fn14-Fc in the microwell plate, 80 μl of drug solution in sample diluent was added to desired wells and incubated for 2 hrs at room temperature. Subsequently, 20 μL of 2500 pg/mL (5×) TWEAK was added to each well to achieve final TWEAK concentration of 500 pg/mL and incubated for additional 2 hr at room temperature. Bound TWEAK was detected as described in the protocol above. All small molecule inhibitors were screened at 25 μM final concentration (final DMSO concentration of 0.125%) in duplicate. Cyclohexamide, a non-specific small molecule, at 25 μM concentration was used as negative control. The anti-Fn14 antibody ITEM-4, added at 2.5 μg/mL, was used as a positive control for complete blockade of TWEAK binding. Reduction in TWEAK binding due to compound addition or controls was calculated by using standard curve (Separate standard curve was obtained for every screening plate).

[1] = Table 4, second screening iteration, 25 μM, average of duplicate, read-out: % Reduction in TWEAK Binding, Average
[2] = Table 4, second screening iteration, 25 μM, replicate 1, read-out: % Reduction in TWEAK Binding, Data 1
[3] = Table 4, second screening iteration, 25 μM, replicate 2, read-out: % Reduction in TWEAK Binding, Data 2
[4] = Table 5, 25 μM, average of duplicate, read-out: % Reduction in TWEAK Binding, Average
[5] = Table 5, 25 μM, replicate 1, read-out: % Reduction in TWEAK Binding, Data 1
[6] = Table 5, 25 μM, replicate 2, read-out: % Reduction in TWEAK Binding, Data 2
[7] = Table 3, first round of screening, 25 μM, average of duplicate, read-out: % Reduction in TWEAK Binding, Average
[8] = Table 3, first round of screening, 25 μM, replicate 1, read-out: % Reduction in TWEAK Binding, Data 1
[9] = Table 3, first round of screening, 25 μM, replicate 2, read-out: % Reduction in TWEAK Binding, Data 2
[10] = first round of screening, 25 μM, read-out: single point activities / individual data points, inhibition of the Fn14-TWEAK interaction
[11] = first round of screening, 25 μM, read-out: average inhibition in TWEAK-Fn14 binding

Row | SMILES | inhibition at 25 µM [1] | inhibition at 25 µM [2] | inhibition at 25 µM [3] | inhibition at 25 µM [4] | inhibition at 25 µM [5] | inhibition at 25 µM [6] | inhibition at 25 µM [7] | inhibition at 25 µM [8] | inhibition at 25 µM [9] | inhibition at 25 µM [10] | inhibition at 25 µM [11]
1 | CCn1c(=O)c(S(=O)(=O)c2ccccc2)c(O)c2ccccc21 [Compound C200-7197] | 26.3% | 27.4% | 25.1% | 26.3% | 27.4% | 25.1% |  |  |  |  | 
2 | O=C1CN(C(=O)CSc2ccccc2)c2ccccc2N1 [Compound D479-0271] | 19.7% | 20.9% | 18.5% | 19.7% | 20.9% | 18.5% |  |  |  |  | 
3 | COc1ccc(C2N[C@H](C(=O)O)Cc3c2[nH]c2ccccc32)cc1O (some centres unmarked) [Compound D715-0114] |  |  |  | 10.3% | 0.98% | 19.6% | 10.3% | 0.98% | 19.6% | > 15% | 
4 | COC(=O)[C@H]1Cc2c([nH]c3ccccc23)CN1 [Compound D715-0140] |  |  |  | 11.7% | 9.77% | 13.6% | 11.7% | 9.77% | 13.6% |  | 
5 | O=C(Cc1c[nH]c2ccccc12)Nc1ccc2oc(=O)ccc2c1 [Compound D715-0817] |  |  |  | 10.3% | 9.04% | 11.5% | 10.3% | 9.04% | 11.5% |  | 
6 | Cc1cc(C)n(CC(=O)NCCc2c[nH]c3ccccc23)n1 [Compound D715-0890] |  |  |  | 15.3% | 17.1% | 13.6% | 15.3% | 17.1% | 13.6% |  | > 15%
7 | O=C(O)C[C@@H]1NC(=O)c2ccccc2NC1=O [Compound D715-2673] |  |  |  | 14.5% | 14.3% | 14.7% | 14.5% | 14.3% | 14.7% |  | < 15%
8 | COc1ccccc1NC(=O)Cc1csc(NC(=O)Nc2ccccc2)n1 [Compound F042-0072] |  |  |  | 10.4% | 13% | 7.81% | 10.4% | 13% | 7.81% |  | 
9 | O=C(NCc1n[nH]c(=O)c2ccccc12)C(=O)N1CCCCCC1 [Compound F044-0011] | 22% | 20.8% | 23.2% | 22% | 20.8% | 23.2% |  |  |  |  | 
10 | CC(C)NC(=O)C(=O)NCc1n[nH]c(=O)c2ccccc12 [Compound F044-0043] |  |  |  | 13.7% | 12.8% | 14.7% | 13.7% | 12.8% | 14.7% |  | < 15%
11 | CCOCCCNC(=O)C(=O)NCc1n[nH]c(=O)c2ccccc12 [Compound F044-0058] |  |  |  | 12% | 9.99% | 14.1% | 12% | 9.99% | 14.1% |  | 
12 | O=C(NCc1ccccc1)C(=O)NCc1n[nH]c(=O)c2ccccc12 [Compound F044-0075] |  |  |  | 13% | 13.2% | 12.8% | 13% | 13.2% | 12.8% |  | < 15%
13 | O=C(NCc1ccccc1Cl)C(=O)NCc1n[nH]c(=O)c2ccccc12 [Compound F044-0076] | 1.62% | -2.3% | 5.55% | 10.9% | 8.55% | 13.2% | 10.9% | 8.55% | 13.2% |  | 
14 | O=C(NCc1ccc(F)cc1)C(=O)NCc1n[nH]c(=O)c2ccccc12 [Compound F044-0077] |  |  |  | 11.5% | 12.6% | 10.4% | 11.5% | 12.6% | 10.4% |  | 
15 | O=C(NCc1cccnc1)C(=O)NCc1n[nH]c(=O)c2ccccc12 [Compound F044-0083] |  |  |  | 11% | 11.1% | 10.8% | 11% | 11.1% | 10.8% |  | 
16 | CCC(=O)Nc1ccccc1-c1nnc(SC(CC)C(=O)Nc2cccc(OC)c2)[nH]c1=O (centres unmarked) [Compound F151-0392] |  |  |  | 11.6% | 9.04% | 14.2% | 11.6% | 9.04% | 14.2% |  | 
17 | CCC(=O)Nc1ccccc1-c1nnc(SC(C)C(=O)Nc2cccc(Cl)c2C)[nH]c1=O (centres unmarked) [Compound F151-0419] |  |  |  | 10.9% | 8.79% | 13% | 10.9% | 8.79% | 13% |  | 
18 | CCC(=O)Nc1ccccc1-c1nnc(SC(CC)C(=O)Nc2cc(OC)cc(OC)c2)[nH]c1=O (centres unmarked) [Compound F151-0435] |  |  |  | 15.5% | 18.9% | 12.2% | 15.5% | 18.9% | 12.2% |  | > 15%
19 | CCC(=O)Nc1ccccc1-c1nnc(SCC(=O)Nc2cc(C)ccc2C)[nH]c1=O [Compound F151-0458] |  |  |  | 11.1% | 10.7% | 11.5% | 11.1% | 10.7% | 11.5% |  | 
20 | CCC(=O)Nc1ccccc1-c1nnc(SCC(=O)Nc2ccc(OC)cc2)[nH]c1=O [Compound F151-0485] |  |  |  | 10.3% | 14.7% | 5.86% | 10.3% | 14.7% | 5.86% |  | 
21 | O=C(CSc1ccccc1)Nc1cccc2nsnc12 [Compound F281-0079] | 14.6% | 15.5% | 13.7% | 14.6% | 15.5% | 13.7% |  |  |  |  | 
22 | O=C(CSc1nnc(-c2ccccc2)c(-c2ccccc2)n1)Nc1ccccc1 [Compound G003-0114] | 13% | 14.7% | 11.3% | 13% | 14.7% | 11.3% |  |  |  |  | 
23 | O=C(CSc1nc2c(cnn2-c2ccccc2)c(=O)[nH]1)NCc1ccc(F)cc1 [Compound G873-0031] |  |  |  | 14.2% | 20.3% | 8.06% | 14.2% | 20.3% | 8.06% | > 15% | 
24 | O=C(CSc1nc2c(cnn2-c2ccccc2)c(=O)[nH]1)NCc1ccc2c(c1)OCO2 [Compound G873-0032] |  |  |  | 20.4% | 26.3% | 14.5% | 20.4% | 26.3% | 14.5% |  | > 15%
